Experimental data from patent US20120156771A1, “FUNCTIONAL DISRUPTION OF AN IMMUNOGLOBULIN GENE IN AN AVIAN EMBRYONIC STEM CELL” (Origen Therapeutics, Inc., priority 2002, published 2012).

Test system: chicken embryonic stem cells
Experiment: Titration kill curve: morphology of cES cells under puromycin or neomycin selection
Format: cell-based
Parameters: key to Morphology of cES cells: ES: ES cells are present.; diff: ES cells are differentiated.; gone: no morphologically recognizable cells are present
Description: In a preferred embodiment, the concentration of puromycin required for selecting transfected cells is calculated as a titration kill curve. Titration kill curves for chicken embryonic stem cells are established by exposing cells in culture to puromycin concentrations varying from 0.0 to 1.0 μg/ml for 10 days (Table 7) and neomycin concentrations varying from 0.0 to 200 μg/ml (Table 8). The medium is changed every 2 days and fresh puromycin or neomycin is added. […] Puromycin concentrations of 0.3-1.0 μg/ml are used for selection of the transfected cultures. Neomycin concentrations over 40 μg/ml eliminated all cES cells within 7 days (Table 8).

## neomycin
Neomycin 10 μg/ml, day 1 under selection
  Morphology of cES cells: ES
Neomycin 10 μg/ml, day 2 under selection
  Morphology of cES cells: ES
Neomycin 10 μg/ml, day 3 under selection
  Morphology of cES cells: ES
Neomycin 10 μg/ml, day 4 under selection
  Morphology of cES cells: ES
Neomycin 10 μg/ml, day 5 under selection
  Morphology of cES cells: ES
Neomycin 10 μg/ml, day 6 under selection
  Morphology of cES cells: ES
Neomycin 10 μg/ml, day 7 under selection
  Morphology of cES cells: ES
Neomycin 10 μg/ml, day 8 under selection
  Morphology of cES cells: ES
Neomycin 10 μg/ml, day 9 under selection
  Morphology of cES cells: ES
Neomycin 10 μg/ml, day 10 under selection
  Morphology of cES cells: ES
Neomycin 20 μg/ml, day 1 under selection
  Morphology of cES cells: ES
Neomycin 20 μg/ml, day 2 under selection
  Morphology of cES cells: ES
Neomycin 20 μg/ml, day 3 under selection
  Morphology of cES cells: ES
Neomycin 20 μg/ml, day 4 under selection
  Morphology of cES cells: ES
Neomycin 20 μg/ml, day 5 under selection
  Morphology of cES cells: ES
Neomycin 20 μg/ml, day 6 under selection
  Morphology of cES cells: ES
Neomycin 20 μg/ml, day 7 under selection
  Morphology of cES cells: ES
Neomycin 20 μg/ml, day 8 under selection
  Morphology of cES cells: ES
Neomycin 20 μg/ml, day 9 under selection
  Morphology of cES cells: ES
Neomycin 20 μg/ml, day 10 under selection
  Morphology of cES cells: ES
Neomycin 30 μg/ml, day 1 under selection
  Morphology of cES cells: ES
Neomycin 30 μg/ml, day 2 under selection
  Morphology of cES cells: ES
Neomycin 30 μg/ml, day 3 under selection
  Morphology of cES cells: ES
Neomycin 30 μg/ml, day 4 under selection
  Morphology of cES cells: ES
Neomycin 30 μg/ml, day 5 under selection
  Morphology of cES cells: ES
Neomycin 30 μg/ml, day 6 under selection
  Morphology of cES cells: ES
Neomycin 30 μg/ml, day 7 under selection
  Morphology of cES cells: ES/Diff
Neomycin 30 μg/ml, day 8 under selection
  Morphology of cES cells: ES/diff
Neomycin 30 μg/ml, day 9 under selection
  Morphology of cES cells: Diff
Neomycin 40 μg/ml, day 1 under selection
  Morphology of cES cells: ES
Neomycin 40 μg/ml, day 2 under selection
  Morphology of cES cells: ES
Neomycin 40 μg/ml, day 3 under selection
  Morphology of cES cells: ES
Neomycin 40 μg/ml, day 4 under selection
  Morphology of cES cells: ES
Neomycin 40 μg/ml, day 5 under selection
  Morphology of cES cells: ES/Diff
Neomycin 40 μg/ml, day 7 under selection
  Morphology of cES cells: dead
Neomycin 40 μg/ml, day 8 under selection
  Morphology of cES cells: gone
Neomycin 40 μg/ml, day 9 under selection
  Morphology of cES cells: gone
Neomycin 40 μg/ml, day 10 under selection
  Morphology of cES cells: gone
Neomycin 50 μg/ml, day 1 under selection
  Morphology of cES cells: ES
Neomycin 50 μg/ml, day 2 under selection
  Morphology of cES cells: ES
Neomycin 50 μg/ml, day 3 under selection
  Morphology of cES cells: ES
Neomycin 50 μg/ml, day 4 under selection
  Morphology of cES cells: ES/Diff
Neomycin 50 μg/ml, day 5 under selection
  Morphology of cES cells: ES/Diff
Neomycin 50 μg/ml, day 8 under selection
  Morphology of cES cells: gone
Neomycin 50 μg/ml, day 9 under selection
  Morphology of cES cells: gone
Neomycin 50 μg/ml, day 10 under selection
  Morphology of cES cells: gone
Neomycin 60 μg/ml, day 1 under selection
  Morphology of cES cells: ES
Neomycin 60 μg/ml, day 2 under selection
  Morphology of cES cells: ES
Neomycin 60 μg/ml, day 3 under selection
  Morphology of cES cells: ES
Neomycin 60 μg/ml, day 4 under selection
  Morphology of cES cells: gone
Neomycin 60 μg/ml, day 5 under selection
  Morphology of cES cells: Gone
Neomycin 60 μg/ml, day 6 under selection
  Morphology of cES cells: gone
Neomycin 60 μg/ml, day 7 under selection
  Morphology of cES cells: gone
Neomycin 60 μg/ml, day 8 under selection
  Morphology of cES cells: gone
Neomycin 60 μg/ml, day 9 under selection
  Morphology of cES cells: gone
Neomycin 60 μg/ml, day 10 under selection
  Morphology of cES cells: gone
Neomycin 100 μg/ml, day 1 under selection
  Morphology of cES cells: ES/Diff
Neomycin 100 μg/ml, day 2 under selection
  Morphology of cES cells: Diff
Neomycin 100 μg/ml, day 3 under selection
  Morphology of cES cells: dead
Neomycin 100 μg/ml, day 4 under selection
  Morphology of cES cells: gone
Neomycin 100 μg/ml, day 5 under selection
  Morphology of cES cells: Gone
Neomycin 100 μg/ml, day 6 under selection
  Morphology of cES cells: gone
Neomycin 100 μg/ml, day 7 under selection
  Morphology of cES cells: gone
Neomycin 100 μg/ml, day 8 under selection
  Morphology of cES cells: gone
Neomycin 100 μg/ml, day 9 under selection
  Morphology of cES cells: gone
Neomycin 100 μg/ml, day 10 under selection
  Morphology of cES cells: gone
Neomycin 150 μg/ml, day 2 under selection
  Morphology of cES cells: dead
Neomycin 150 μg/ml, day 3 under selection
  Morphology of cES cells: dead
Neomycin 150 μg/ml, day 4 under selection
  Morphology of cES cells: gone
Neomycin 150 μg/ml, day 5 under selection
  Morphology of cES cells: Gone
Neomycin 150 μg/ml, day 6 under selection
  Morphology of cES cells: gone
Neomycin 150 μg/ml, day 7 under selection
  Morphology of cES cells: gone
Neomycin 150 μg/ml, day 8 under selection
  Morphology of cES cells: gone
Neomycin 150 μg/ml, day 9 under selection
  Morphology of cES cells: gone
Neomycin 150 μg/ml, day 10 under selection
  Morphology of cES cells: gone
Neomycin 200 μg/ml, day 2 under selection
  Morphology of cES cells: dead
Neomycin 200 μg/ml, day 3 under selection
  Morphology of cES cells: gone
Neomycin 200 μg/ml, day 4 under selection
  Morphology of cES cells: gone
Neomycin 200 μg/ml, day 5 under selection
  Morphology of cES cells: Gone
Neomycin 200 μg/ml, day 6 under selection
  Morphology of cES cells: gone
Neomycin 200 μg/ml, day 7 under selection
  Morphology of cES cells: gone
Neomycin 200 μg/ml, day 8 under selection
  Morphology of cES cells: gone
Neomycin 200 μg/ml, day 9 under selection
  Morphology of cES cells: gone
Neomycin 200 μg/ml, day 10 under selection
  Morphology of cES cells: gone
Within 7 days
  Neomycin concentrations that eliminated all cES cells: over 40 μg/ml
